Experimental data from ChEMBL document CHEMBL1144591, “Synthesis and cytotoxicity of some new eriocalyxin B derivatives” (Eur J Med Chem, 2007).
In brackets after ≈: the same amount, converted by molar mass.

Experiments:
Format in all cases: functional, cell-based
[1] = Cytotoxicity against human OVCA2780 cells after 48 hrs by MTT colorimetric assay; settings: A2780, 48 h
[2] = system: K562; experiment: Cytotoxicity against human K562 cells after 48 hrs by MTT colorimetric assay; settings: K562, 48 h
[3] = system: A549; experiment: Cytotoxicity against human A549 cells after 48 hrs by MTT colorimetric assay; settings: A549, 48 h
[4] = system: DU-145; experiment: Cytotoxicity against human DU145 cells after 48 hrs by MTT colorimetric assay; settings: DU-145, 48 h
[5] = system: MCF7; experiment: Cytotoxicity against human MCF7 cells after 48 hrs by MTT colorimetric assay; settings: MCF7, 48 h

SMILES | IC50 [1] | IC50 [2] | IC50 [3] | IC50 [4] | IC50 [5]
C[C@H]1C(=O)[C@]23C[C@H]1CC[C@H]2[C@@]12CO[C@@]3(O)[C@@H](O)[C@@H]1C(C)(C)CCC2=O | > 200 µg/mL | > 100 µg/mL | > 100 µg/mL | > 200 µg/mL | > 200 µg/mL
C=C1C(=O)[C@]23C[C@H]1CC[C@H]2[C@@]12CO[C@@]3(O)[C@@H](OC(C)=O)[C@@H]1C(C)(C)C=CC2=O | 11.9 µg/mL (≈ 30.9 µM) | 25 µg/mL (≈ 64.7 µM) | 31 µg/mL (≈ 80.2 µM) | 80.6 µg/mL (≈ 209 µM) | 20.1 µg/mL (≈ 51.9 µM)
C=C1C(=O)[C@]23C[C@H]1CC[C@H]2[C@@]12CO[C@@]3(O)[C@@H](OC(=O)CBr)[C@@H]1C(C)(C)C=CC2=O | 2.06 µg/mL (≈ 4.43 µM) | 1.5 µg/mL (≈ 3.22 µM) | 4.86 µg/mL (≈ 10.4 µM) | 4.52 µg/mL (≈ 9.71 µM) | 0.85 µg/mL (≈ 1.83 µM)
C=C1C(=O)[C@]23C[C@H]1CC[C@H]2[C@]1(COC(C)=O)C(=O)C=CC(C)(C)[C@H]1[C@H](OC(C)=O)C3=O | 9.71 µg/mL (≈ 22.7 µM) | 28.1 µg/mL (≈ 65.6 µM) | 61.8 µg/mL (≈ 144 µM) | 17.9 µg/mL (≈ 41.8 µM) | 24.6 µg/mL (≈ 57.4 µM)
C=C1C(=O)[C@]23C[C@H]1CC[C@H]2[C@]12CO[C@@H](CC1=O)C(C)(C)[C@H]2[C@H](OC(C)=O)C3=O | 11.3 µg/mL (≈ 29.2 µM) | 19.3 µg/mL (≈ 49.9 µM) | 10.1 µg/mL (≈ 26.1 µM) | 31.9 µg/mL (≈ 82.5 µM) | 36.7 µg/mL (≈ 94.9 µM)
C=C1C(=O)[C@]23C[C@H]1CC[C@H]2[C@]12CO[C@@H](CC1=O)C(C)(C)[C@H]2[C@H](OC(=O)CBr)C3=O | 14.9 µg/mL (≈ 32.1 µM) | 4.54 µg/mL (≈ 9.76 µM) | 10.9 µg/mL (≈ 23.4 µM) | 26.6 µg/mL (≈ 57.1 µM) | 67.1 µg/mL (≈ 144 µM)
C=C1C(=O)[C@]23C[C@H]1CC[C@H]2[C@]12CO[C@@H](CC1=O)C(C)(C)[C@H]2[C@H](OC(=O)CCCl)C3=O | 10.5 µg/mL (≈ 24.1 µM) | 8.88 µg/mL (≈ 20.4 µM) | 20.3 µg/mL (≈ 46.6 µM) | 51 µg/mL (≈ 117 µM) | 22.7 µg/mL (≈ 52.1 µM)
C=C(C(=O)O)[C@@H]1CC[C@@H]2[C@@H](C1)C(=O)C(O)=C1C(C)(C)[C@@H]3CC(=O)[C@]12CO3 | > 200 µg/mL | > 200 µg/mL | > 200 µg/mL | > 200 µg/mL | > 200 µg/mL
C=C1C(=O)[C@]23C[C@H]1CC[C@H]2[C@]1(COC3=O)C(=O)C=CC(C)(C)[C@H]1C=O | 20.7 µg/mL (≈ 60.3 µM) | 0.27 µg/mL (≈ 0.789 µM) | 2.26 µg/mL (≈ 6.6 µM) | 47.4 µg/mL (≈ 138 µM) | 0.257 µg/mL (≈ 0.751 µM)
C=C1[C@@H]2CC[C@H]3[C@@]45CO[C@@](O)([C@@H](O)[C@@H]4C(C)(C)C=CC5=O)[C@]3(C2)[C@@H]1O | 52.8 µg/mL (≈ 152 µM) | 33.2 µg/mL (≈ 96 µM) | 15.3 µg/mL (≈ 44.1 µM) | > 100 µg/mL | 83.6 µg/mL (≈ 241 µM)
C=C1C(=O)[C@]23C[C@H]1CC[C@H]2[C@@]12CO[C@@]3(OC(C)=O)[C@@H](O)[C@@H]1C(C)(C)C=CC2=O | 13.1 µg/mL (≈ 34 µM) | 7.23 µg/mL (≈ 18.7 µM) | 38.9 µg/mL (≈ 101 µM) | 74.7 µg/mL (≈ 193 µM) | > 100 µg/mL
C=C1C(=O)[C@]23C[C@H]1CC[C@H]2[C@@]12CO[C@@]3(O)C(=O)[C@@H]1C(C)(C)C=CC2=O | 7.28 µg/mL (≈ 21.3 µM) | 4.94 µg/mL (≈ 14.4 µM) | 33.2 µg/mL (≈ 96.9 µM) | 12 µg/mL (≈ 35 µM) | 59.6 µg/mL (≈ 174 µM)
C=C1C(=O)[C@]23C[C@H]1CC[C@H]2[C@@]12CO[C@@]3(O)[C@@H](O)[C@@H]1C(C)(C)C=CC2=O | 1.8 µg/mL (≈ 5.23 µM) | 1.32 µg/mL (≈ 3.83 µM) | 2.49 µg/mL (≈ 7.23 µM) | 1.34 µg/mL (≈ 3.89 µM) | 0.15 µg/mL (≈ 0.436 µM)
C=C1[C@@H]2CC[C@H]3[C@@]45CO[C@@](O)([C@@H](O)[C@@H]4C(C)(C)C=C[C@@H]5O)[C@]3(C2)[C@@H]1O | > 200 µg/mL | > 100 µg/mL | > 100 µg/mL | > 100 µg/mL | > 100 µg/mL
C=CC(=O)O[C@H]1[C@@H]2C(C)(C)C=CC(=O)[C@]23CO[C@]1(O)[C@@]12C[C@@H](CC[C@@H]31)C(=C)C2=O | 4.33 µg/mL (≈ 10.9 µM) | 5.05 µg/mL (≈ 12.7 µM) | 33 µg/mL (≈ 82.8 µM) | 41.2 µg/mL (≈ 103 µM) | 6.56 µg/mL (≈ 16.5 µM)
C=C1C(=O)[C@]23C[C@H]1CC[C@H]2[C@]1(COC3=O)C(=O)C=CC(C)(C)[C@H]1C(=O)O | > 200 µg/mL | > 100 µg/mL | > 100 µg/mL | > 100 µg/mL | > 100 µg/mL
C=C1C(=O)[C@]23C[C@H]1CC[C@H]2[C@]12CO[C@@H](CC1=O)C(C)(C)[C@H]2[C@H](OC(=O)CCCCl)C3=O | 42.6 µg/mL (≈ 95 µM) | > 100 µg/mL | 68.1 µg/mL (≈ 152 µM) | > 100 µg/mL | > 100 µg/mL
C=C(C(=O)O)[C@@H]1CC[C@@H]2[C@@H](C1)C(=O)[C@@H](O)[C@@H]1C(C)(C)[C@@H]3CC(=O)[C@@]21CO3 | > 200 µg/mL | > 100 µg/mL | > 200 µg/mL | > 200 µg/mL | > 200 µg/mL
C=C1C(=O)[C@]23C[C@H]1CC[C@H]2[C@]12CO[C@@H](CC1=O)C(C)(C)[C@H]2[C@H](O)C3=O | 16.9 µg/mL (≈ 49.2 µM) | 3.73 µg/mL (≈ 10.8 µM) | 27.2 µg/mL (≈ 79 µM) | 33.2 µg/mL (≈ 96.3 µM) | 8.87 µg/mL (≈ 25.8 µM)
C=C1[C@@H]2CC[C@H]3[C@@]45CO[C@@](O)([C@@H](O)[C@@H]4C(C)(C)CC[C@@H]5O)[C@]3(C2)[C@@H]1O | > 200 µg/mL | > 100 µg/mL | > 100 µg/mL | > 100 µg/mL | > 100 µg/mL
